According to patent US20220241409A1, “WATER SOLUBLE ADJUVANT AND COMPOSITION CONTAINING SAME” (Sumitomo Dainippon Pharma Co., Ltd., priority 2019, published 2022):

What was measured:
[1] = molecular target: T1, mouse TLR7 (Mus musculus, UniProt P58681); experiment: Mouse TLR7 reporter gene assay (Test 2); format: cell-based; conditions: half-maximal SEAP induction, HEK-Blue mTLR7 cell line, overnight 37° C., 0.1% DMSO
T1 construct: expresses full-length mouse TLR7 and secretory SEAP reporter gene; host or cells: HEK-Blue mTLR7 cell line
T1 sequence (P58681 27-1050): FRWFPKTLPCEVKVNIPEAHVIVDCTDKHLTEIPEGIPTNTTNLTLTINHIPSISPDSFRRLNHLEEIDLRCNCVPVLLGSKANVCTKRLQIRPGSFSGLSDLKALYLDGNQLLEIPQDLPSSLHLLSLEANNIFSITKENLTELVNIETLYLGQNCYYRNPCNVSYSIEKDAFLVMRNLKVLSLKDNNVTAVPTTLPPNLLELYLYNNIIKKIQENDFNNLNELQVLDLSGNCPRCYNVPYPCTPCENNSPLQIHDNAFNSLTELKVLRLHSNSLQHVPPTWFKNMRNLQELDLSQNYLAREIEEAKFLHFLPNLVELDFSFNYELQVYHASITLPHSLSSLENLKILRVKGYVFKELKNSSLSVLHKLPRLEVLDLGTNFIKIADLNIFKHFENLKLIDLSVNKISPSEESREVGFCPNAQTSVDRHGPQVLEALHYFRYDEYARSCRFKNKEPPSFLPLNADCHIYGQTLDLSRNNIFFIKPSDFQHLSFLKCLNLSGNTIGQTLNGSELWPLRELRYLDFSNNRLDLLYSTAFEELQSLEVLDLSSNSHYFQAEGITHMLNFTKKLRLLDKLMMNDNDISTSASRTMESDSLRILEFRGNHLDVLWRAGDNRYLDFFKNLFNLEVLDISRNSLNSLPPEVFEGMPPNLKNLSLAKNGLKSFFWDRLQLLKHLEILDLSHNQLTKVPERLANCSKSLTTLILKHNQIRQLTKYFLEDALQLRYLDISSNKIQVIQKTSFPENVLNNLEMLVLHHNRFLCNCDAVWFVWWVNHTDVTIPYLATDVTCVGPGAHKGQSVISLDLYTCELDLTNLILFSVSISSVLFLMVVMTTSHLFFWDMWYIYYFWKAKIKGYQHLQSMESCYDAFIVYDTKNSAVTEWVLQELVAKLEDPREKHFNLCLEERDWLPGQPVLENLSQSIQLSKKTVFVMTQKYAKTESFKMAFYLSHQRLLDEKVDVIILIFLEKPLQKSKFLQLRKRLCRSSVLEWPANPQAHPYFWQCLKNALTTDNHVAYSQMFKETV
Text: HEK-Blue™ mTLR7 cell line (Invivogen) is a stably co-transfected cell line which expresses full-length mouse TLR7 and secretory SEAP reporter gene under the transcriptional regulation of an NF-κB response element. The TLR7 expression of the cell line has been already tested by RT-PCR. Transfectants with stable expression were selected using the antibiotic blasticidin and Zeocin. TLR signaling leads to the translocation of NF-κB and the activation of the promoter results in expression of the SEAP gene. TLR7-specific activation was assessed by determining the level of SEAP produced following overnight incubation of the cells at 37° C. with each compound prepared in Examples and Reference examples in the presence of 0.1% (v/v) DMSO. The mouse TLR7 activity for the present compound was assessed by mouse TLR7 reporter gene assay, and the results are shown in Tables 8 and 9 as the compound concentration which produced half of the maximal level of SEAP induction (EC50).

[2] = molecular target: T2, human TLR7 (Homo sapiens, UniProt Q9NYK1); experiment: Human TLR7 reporter gene assay (Test 1); format: cell-based; conditions: half-maximal SEAP induction, TLR7/NF-κB/SEAPorter HEK293 cell line, overnight 37° C., 0.1% DMSO
T2 construct: expresses full-length human TLR7 and secretory alkaline phosphatase (SEAP) reporter gene; host or cells: TLR7/NF-κB/SEAPorter HEK293 cell line
T2 sequence (Q9NYK1 27-1049): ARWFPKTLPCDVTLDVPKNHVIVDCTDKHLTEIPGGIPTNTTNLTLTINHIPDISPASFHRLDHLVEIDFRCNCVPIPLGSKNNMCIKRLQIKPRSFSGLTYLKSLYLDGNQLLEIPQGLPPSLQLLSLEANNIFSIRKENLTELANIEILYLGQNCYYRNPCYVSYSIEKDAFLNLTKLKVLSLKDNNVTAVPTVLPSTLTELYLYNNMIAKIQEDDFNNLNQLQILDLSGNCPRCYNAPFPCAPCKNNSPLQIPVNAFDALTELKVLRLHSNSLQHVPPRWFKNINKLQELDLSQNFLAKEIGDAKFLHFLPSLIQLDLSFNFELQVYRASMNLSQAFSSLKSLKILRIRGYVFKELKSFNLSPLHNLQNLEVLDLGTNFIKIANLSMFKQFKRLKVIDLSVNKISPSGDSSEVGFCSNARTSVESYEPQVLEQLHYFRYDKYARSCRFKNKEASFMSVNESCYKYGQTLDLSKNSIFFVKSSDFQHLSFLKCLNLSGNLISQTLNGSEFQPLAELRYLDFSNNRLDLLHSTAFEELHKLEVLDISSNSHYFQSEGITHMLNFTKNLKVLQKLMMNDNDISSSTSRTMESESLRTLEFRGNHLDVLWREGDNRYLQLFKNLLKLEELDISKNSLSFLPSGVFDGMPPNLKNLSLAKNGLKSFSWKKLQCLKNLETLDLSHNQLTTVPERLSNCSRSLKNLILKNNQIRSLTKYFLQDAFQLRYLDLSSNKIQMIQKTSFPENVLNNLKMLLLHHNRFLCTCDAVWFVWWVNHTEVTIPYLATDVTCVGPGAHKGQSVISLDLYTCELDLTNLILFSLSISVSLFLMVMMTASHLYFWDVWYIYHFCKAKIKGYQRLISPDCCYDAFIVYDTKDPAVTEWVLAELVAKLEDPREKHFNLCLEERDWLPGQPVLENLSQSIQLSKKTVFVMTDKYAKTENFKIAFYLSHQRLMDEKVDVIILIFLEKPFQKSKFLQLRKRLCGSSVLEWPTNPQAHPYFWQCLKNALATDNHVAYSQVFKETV
Text: TLR7/NF-κB/SEAPorter™ HEK293 cell line (Imgenex Corporation) is a stably co-transfected cell line which expresses full-length human TLR7 and secretory alkaline phosphatase (SEAP) reporter gene under the transcriptional regulation of an NF-κB response element. The TLR7 expression of the cell line has been already tested by flow cytometry. Transfectants with stable expression were selected using the antibiotic blasticidin and Geneticin. TLR signaling leads to the translocation of NF-κB and the activation of the promoter results in expression of the SEAP gene. TLR7-specific activation was assessed by determining the level of SEAP produced following overnight incubation of the cells at 37° C. with each compound prepared in Examples and Reference examples in the presence of 0.1% (v/v) dimethylsulfoxide (DMSO). The human TLR7 activity for the present compound was assessed by human TLR7 reporter gene assay, and the results are shown in Tables 6 and 7 as the compound concentration which produced half of the maximal level of SEAP induction (EC50).

| EC50 ([1]; Table 9, Reference examples) [µM] | EC50 ([2]; Table 7, Reference examples) [µM] | Structure (SMILES) | EC50 ([1]; Table 8, Examples) [µM] | EC50 ([2]; Table 6, Examples) [µM] |
| --- | --- | --- | --- | --- |
| – | – | CCCCOc1nc(N)c2[nH]c(=O)n(Cc3ccc(CN(C)CCOCCOCCOCCOCCO)nc3)c2n1 [Example 2, 6-amino-2-butoxy-9-{[6-(16-hydroxy-2-methyl-5,8,11,14-tetraoxa-2-azahexadecan-1-yl)pyridin-3-yl]methyl}-7,9-dihydro-8H-purin-8-one-trifluoroacetate] | 0.51 | 0.774 |
| – | – | CCCCOc1nc(N)c2[nH]c(=O)n(Cc3ccc(CN(C)CCOCCOCCOCCOCCO)cc3)c2n1 [Example 3, 6-amino-2-butoxy-9-{[4-(16-hydroxy-2-methyl-5,8,11,14-tetraoxa-2-azahexadecan-1-yl)phenyl]methyl}-7,9-dihydro-8H-purin-8-one] | 0.042 | 0.024 |
| 0.251 | 0.578 | CCCCOc1nc(N)c2[nH]c(=O)n(Cc3ccc(CNC)nc3)c2n1 [Reference example 12, reference compound] | – | – |
| 0.023 | 0.012 | CCCCOc1nc(N)c2[nH]c(=O)n(Cc3ccc(CNC)cc3)c2n1 [Reference example 14, reference compound] | – | – |
